Measured values reported in patent US9302999B2, “Substituted triazoles as herbicides” (E. I. DU PONT DE NEMOURS AND COMPANY, priority 2012, dated 2016).

Tests used:
Format in all cases: in vivo
[1] = test system: rice (Oryza sativa); test: Test B flooded paddy: rice; details: Flood; 125 g ai/ha; applied to paddy water at 2-leaf stage; visually evaluated after 13 to 15 days
Method in brief: (§1)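 Visual ratings on a 0–100 scale, where 0 means no effect and 100 means complete control, were assigned by comparison with controls 13 to 15 days after treatment. Compounds went into paddy water over 2-leaf plants flooded to 3 cm.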

[2] = test system: barnyardgrass (Echinochloa crus-galli); test: Test B flooded paddy: barnyardgrass; details: Flood; 125 g ai/ha; applied to paddy water at 2-leaf stage; visually evaluated after 13 to 15 days
Method in brief: as §1

[3] = test system: wheat (Triticum aestivum); test: Test A pre-/postemergence: wheat
Method in brief: (§2)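 Injury was scored visually on a 0 (no effect) to 100 (complete control) scale versus untreated controls roughly ten days after treatment in the greenhouse. Compounds, formulated in surfactant-containing non-phytotoxic solvent, went on as soil-directed preemergence spray or postemergence to one- to two-leaf plants 2–10 cm tall.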

[4] = test system: ducksalad (Heteranthera limosa); test: Test B flooded paddy: ducksalad; details: Flood; 125 g ai/ha; applied to paddy water at 2-leaf stage; visually evaluated after 13 to 15 days
Method in brief: as §1

[5] = test system: sedge, umbrella (small-flower umbrella sedge Cyperus difformis); test: Test B flooded paddy: sedge, umbrella; details: Flood; 125 g ai/ha; applied to paddy water at 2-leaf stage; visually evaluated after 13 to 15 days
Method in brief: as §1

[6] = test system: barnyardgrass (Echinochloa crus-galli); test: Test A pre-/postemergence: barnyardgrass
Method in brief: as §2

[7] = test system: morningglory (Ipomoea spp.); test: Test A pre-/postemergence: morningglory
Method in brief: as §2

[8] = test system: corn (Zea mays); test: Test A pre-/postemergence: corn
Method in brief: as §2

[9] = test system: crabgrass, large (large crabgrass, Digitaria sanguinalis); test: Test A pre-/postemergence: crabgrass, large
Method in brief: as §2

[10] = test system: foxtail, giant (giant foxtail, Setaria faberii); test: Test A pre-/postemergence: foxtail, giant
Method in brief: as §2

[11] = test system: pigweed (Amaranthus retroflexus); test: Test A pre-/postemergence: pigweed
Method in brief: as §2

[12] = test system: velvetleaf (Abutilon theophrasti); test: Test A pre-/postemergence: velvetleaf
Method in brief: as §2

[13] = Postemergence, 125 g ai/ha, 0 to 100 scale, 0 is no effect, 100 is complete control
[14] = Postemergence, 500 g ai/ha, 0 to 100 scale, 0 is no effect, 100 is complete control
[15] = Preemergence, 125 g ai/ha, 0 to 100 scale where 0 is no effect and 100 is complete control
[16] = Preemergence, 500 g ai/ha, 0 to 100 scale (0 no effect, 100 complete control)

Structure (SMILES)	Plant response rating, Rice (0 to 100 scale, 0 is no effect, 100 is complete control) [1]	Plant response rating, Barnyardgrass (0 to 100 scale, 0 is no effect, 100 is complete control) [2]	Plant response rating, Wheat [3, 13]	Wheat plant response rating [3, 14]	Plant response rating, Wheat [3, 15]	Plant response rating, Wheat [3, 16]	Plant response rating, Ducksalad (0 to 100 scale, 0 is no effect, 100 is complete control) [4]	Plant response rating, Sedge, Umbrella (0 to 100 scale, 0 is no effect, 100 is complete control) [5]	Plant response rating, Barnyardgrass [6, 13]	Barnyardgrass plant response rating [6, 14]	Plant response rating, Barnyardgrass [6, 15]	Plant response rating, Barnyardgrass [6, 16]	Plant response rating, Morningglory [7, 13]	Morningglory plant response rating [7, 14]	Plant response rating, Morningglory [7, 15]	Plant response rating, Morningglory [7, 16]	Plant response rating, Corn [8, 13]	Corn plant response rating [8, 14]	Plant response rating, Corn [8, 15]	Plant response rating, Corn [8, 16]	other results
CCc1nn(-c2ccc(F)c(C(F)(F)F)c2)nc1Oc1ccnc(C(F)(F)F)c1 [Compound 180]	30	0	30	40	20	40	60	70	50	80	60	80	100	100	40	70	20	30	10	20	Plant response rating, Crabgrass, Large [9, 13]: 90; Crabgrass, Large plant response rating [9, 14]: 90; Plant response rating, Crabgrass, Large [9, 15]: 100; Plant response rating, Crabgrass, Large [9, 16]: 100; Plant response rating, Foxtail, Giant [10, 13]: 90; Foxtail, Giant plant response rating [10, 14]: 90; Plant response rating, Foxtail, Giant [10, 15]: 100; Plant response rating, Foxtail, Giant [10, 16]: 100; Plant response rating, Pigweed [11, 13]: 100; Pigweed plant response rating [11, 14]: 100; Plant response rating, Pigweed [11, 15]: 100; Plant response rating, Pigweed [11, 16]: 100; Plant response rating, Velvetleaf [12, 13]: 70; Velvetleaf plant response rating [12, 14]: 100; Plant response rating, Velvetleaf [12, 15]: 50; Plant response rating, Velvetleaf [12, 16]: 60
CCc1nn(-c2ccc(F)cc2F)nc1Oc1ccnc(C(F)F)c1 [Compound 181]	20	0	0	20	0	0	0	0	0	30	0	20	90	90	0	10	0	10	0	0	Plant response rating, Crabgrass, Large [9, 13]: 50; Crabgrass, Large plant response rating [9, 14]: 50; Plant response rating, Crabgrass, Large [9, 15]: 10; Plant response rating, Crabgrass, Large [9, 16]: 80; Plant response rating, Foxtail, Giant [10, 13]: 30; Foxtail, Giant plant response rating [10, 14]: 80; Plant response rating, Foxtail, Giant [10, 15]: 10; Plant response rating, Foxtail, Giant [10, 16]: 80; Plant response rating, Pigweed [11, 13]: 90; Pigweed plant response rating [11, 14]: 100; Plant response rating, Pigweed [11, 15]: 60; Plant response rating, Pigweed [11, 16]: 90; Plant response rating, Velvetleaf [12, 13]: 30; Velvetleaf plant response rating [12, 14]: 70; Plant response rating, Velvetleaf [12, 15]: 0; Plant response rating, Velvetleaf [12, 16]: 0
